Tests used:
Assay type in all cases: cell-based
[1] = tested on: T47D, breast ductal carcinoma; assay: CellTiter-Glo cell viability assay, cancer cell cytotoxicity/anti-proliferation panel (Chempartner); conditions: T47D
Description: (§1) In this study, the biological activity of certain compounds of the present invention on cancer cell cytotoxicity/anti-proliferation panel was tested using the CellTiter-Glo® cell viability assay. The compounds were dissolved in DMSO to make 10 mM solution.
(§2) The cell lines tested were all selected from the Chempartner's cell collection and included: Caco-2 ATCC colon adenocarcinoma; TE-6 RIKEN esophagus, carcinoma; PC-3 ATCC prostate adenocarcinoma; T47D, breast ductal carcinoma; U251, brain human glioma; A549, lung carcinoma; OMP-2, multiple myeloma; SK-HEP-1, liver adenocarcinoma; PANC-1, pancreas ductal carcinoma; AsPC-1, pancreas, ductal carcinoma; and U-87 MG, brain glioblastoma.
(§3) For the assays described herein, absolute inhibition of cells growth (%) and absolute IC50 (Abs IC50; […]) were used to derive a value that can be used to compare results within and across runs in the same assay, as well as between different assays.
(§4) • a. Prepare complete medium: Add FBS and appropriate additives according to the information sheet provided by the vendor. Mix gently. • b. Check the cell name and complete medium and passage number marked on the flask. For adherent cell lines, refer to c to k. For suspension cell lines, refer to g to k. • c. Remove and discard culture medium using a vacuum pump. • d. Briefly rinse the cell layer with 0.25% (w/v) trypsin-0.038% (w/v) EDTA solution to remove all traces of serum that contains trypsin inhibitor. • e. Add 3.0 ml of trypsin-EDTA solution to flask and observe cells under an inverted microscope until cell layer is dispersed. • f. Add 8.0 ml of complete growth medium and aspirate cells by gently pipetting. • g. Transfer the cell suspension to a centrifuge tube and centrifuge at 800-1000 rpm for 3-5 minutes. • h. Discard the supernatant using a vacuum pump. • i. Add appropriate volume of complete medium. Suspend the cell pellet by gently pipetting. • j. Count the cell numbers with Vi-cell XR and adjust cells to appropriate density. • k. Add 100 μL of cell suspension to 96-well opaque-walled clear bottom plates according to the planned plate layout and place the plates in the CO2 incubator overnight. • l. Plate layout:
(§5) • Plate preparation of testing articles. 10 mM stock solution of each one of the compounds (provided as powder) was prepared in DMSO. […] 0.5 μL of each of the diluted compounds was transferred to the wells containing 100 μL of the culture medium. The total dilution was 200 fold. Cells were incubated with the compounds for 72 hours at 5% CO2, 37° C.
(§6) • Thaw the CellTiter-Glo buffer and equilibrate to room temperature prior to use. • Equilibrate the lyophilized CellTiter-Glo substrate to room temperature prior to use. • Transfer the appropriate volume of CellTiter-Glo buffer into the amber bottle containing CellTiter-Glo substrate to reconstitute the lyophilized enzyme/substrate mixture. This forms the CellTiter-Glo reagent. • Mix by gently vortexing, swirling or by inverting the contents to obtain a homogeneous solution. The CellTiter-Glo substrate should go into solution easily in less than one minute.
(§7) • Observe the cell morphology under an inverted microscope after corresponding treatment. • Equilibrate the plate and its contents to room temperature for approximately 30 minutes. • Add 100 μL of CellTiter-Glo reagent to the assay plate by Multidrop Combi instrument. • Mix contents for 10 minutes on an orbital shaker to induce cell lysis. • Allow the plate to incubate at room temperature for 10 minutes to stabilize luminescent signal. • Paste the clear bottom with white back seal and record luminescence with Enspire. The settings should be: Luminescence, measurement time 0.1 ms.
(§8) Inhibition (%) and absolute IC50 (μM) of each compound was calculated with XLFit curve fitting software that is compatible to Activity Base.

[2] = tested on: PANC-1, pancreas ductal carcinoma; assay: as above; conditions: for IC50: Homo sapiens, PANC-1, 72 h, read-out: IC50 (absolute IC50)
Description: as §1, §2, §3, §4, §5, §6, §7, §8

[3] = tested on: A549, lung carcinoma; assay: as above
Description: as §1, §2, §3, §4, §5, §6, §7, §8

[4] = tested on: AsPC-1, pancreas, ductal carcinoma; assay: as above
Description: as §1, §2, §3, §4, §5, §6, §7, §8

[5] = tested on: U-87 MG, brain glioblastoma; assay: as above; conditions: for IC50: Homo sapiens, 72 h, read-out: IC50 (absolute IC50)
Description: as §1, §2, §3, §4, §5, §6, §7, §8

[6] = tested on: PANC-1 (pancreatic carcinoma); assay: XTT cytotoxicity assay (Pharma Seed); conditions: Homo sapiens, 48 hours, 20, 10, 5, 1 μM, assay medium 1% FBS
Description: In this study, the cytotoxicity of several compounds of the present invention on lung and pancreatic cancer cell was evaluated.
PANC-1 (pancreatic carcinoma) culture medium: DMEM (High Glucose), supplemented with 10% FBS (heat inactivated), 2 mM L-glutamine, and 1% of Pen/Strep/Amp solution. PANC-1 assay medium: DMEM (High Glucose), supplemented with 1% FBS (heat inactivated), 2 mM L-glutamine, and 1% of Pen/Strep/Amp solution.
Each of the tested compounds was dissolved in DMSO to reach a stock concentration of 20 mM (and stored at −15° C.-−25° C. until use. Compound Ia28 (MW 484 g/mol, 3.05 mg total) was dissolved in 0.315 mL; compound Ia9 (MW 484 g/mol, 2.33 mg total) was dissolved in 0.241 mL; and compound Ia6 (MW 428.3 g/mol, 2.25 mg total) was dissolved in 0.262 mL.
On the day of incubation with the cells, each compound was diluted in DMSO to reach 2 mM, 1 mM, 0.5 mM, 0.1 mM stock concentrations (1:10, 1:20, 1:40 and 1:200), and each of these stocks was further diluted in assay medium 1:100 for final concentration of 20 μM, 10 μM, 5 μM, and 1 μM.
Part 1—cell number calibration. PANC-1 and A549 cells were each plated in a 96 well plate, in their culture medium, at various cell concentrations per well, in triplicates, and were allowed to attach for 24 hours. Thereafter, culture medium was discarded, assay medium was added, and the cells were incubated for additional 72 hours. Finally, assay medium was discarded, and fresh culture medium was added to the cells along with 50 μl XTT reagent. The OD was measured every two hours for 6 hours (three times).
The highest cells number/well were chosen for part 2 as follows: PANC-1 at 7,500 cells per well, A549 at 5000 cells per well.
Part 2—cells incubation with tested compounds. PANC-1 and A549 cells were plated in a 96 well plate, in their culture medium, at the optimal cell concentration according to the results from the previous section and were allowed to attach for 24 hours. Thereafter, the culture medium was discarded, and fresh assay medium was added to the cells, supplemented with elevating compound concentrations. Triton 0.1% was used as positive control for cell death. The cells were incubated for another 48 hours (TBD upon microscopic observation). Finally, fresh culture medium was added to the cells along with 50 μl XTT reagent. The OD was measured at the optimal time point according to the results in the previous section.

[7] = tested on: TNF-α; assay: LPS induced cytokine release assay, TNF-α by ELISA in PBMCs; conditions: human PBMCs; for TNF-α: 72 h, ELISA (LPS control 18.16)
Source text: (§9) This study was aimed to test the effect of 12 compounds (THCA, Ia1, Ia5, Ia6, Ia9, Ia11, Ia15, Ia17, Ia24, Ia25, Ia27, and Ia28) on human peripheral blood mononuclear cells (PBMCs) challenged by lipopolysaccharide (LPS) through monitoring multiple inflammatory endpoints.
(§10) Blood samples were collected from healthy volunteers according to protocols that have been reviewed and approved by the Chempartner Institutional Ethic Committee (IEC) upon signing an Informed Consent Form (ICF).
(§11) Fresh PBMCs were isolated and seeded into 96-well plate, and diluted solutions of the tested compounds and 0.1 μg/mL LPS were then added (in triplicates). To serve as control, 3 wells with PBMCs only, 3 wells with 0.1 μg/mL LPS, and 2 wells with 1 μg/mL dexamethasone (Dex) and 0.1 μg/mL LPS were included. After 72 hours incubation, supernatant was collected for tumor necrosis factor-α (TNF-α) measurement by enzyme-linked immunosorbent assay (ELISA), and cell pellets were harvested for cell proliferation measurement by CellTiter-Glo® Luminescent Cell Viability Assay (CTG).
(§12) The human blood sample from an individual donor was diluted by the same volume of sterile phosphate buffered solution (PBS) and mixed sufficiently by gentle shake. 15 mL Lymphoprep™ medium was transferred into a new 50 mL centrifuge tube, and the diluted blood sample (30 mL) was then carefully added onto the surface of the medium, which consequently contained Ficoll 400 and blood in a volume ratio of 1:2. Four interfaces were observed after centrifugation, which are, from top to bottom, layers of plasma, mononuclear cells, Ficoll medium, and red blood cells (RBCs). Plasma was absorbed, and mononuclear cells were then transferred into another new sterile centrifuge tube. Then, sterile PBS buffer was added into the collected PBMCs for washing, at a volume ratio of 3:1. PBMCs were washed with 5-10 mL PBS twice before cell counting with cytometer. Cells were centrifuged at 350×g, for 10 min, at 20° C. with the acceleration (5) and deceleration (5) settings during the centrifugation. The cells were resuspended with RPMI 1640 complete medium (containing 10% FBS) for assay, and the density was adjusted with RPMI 1640 complete medium to the final concentration of 2E6 cells/mL. Cells suspension of the PBMCs (100 μL/well) were seeded into 96-well plate (#3903).
(§13) Diluted solutions of the tested compounds were prepared with RPMI 1640 complete medium according to the following layout. Compounds were prepared at 5-fold of concentration (50 μM), and then were diluted to the working concentration of 10 μM with RPMI 1640 complete medium and made 10-fold serially dilution (2 points). The diluted compounds (50 μL/well) were added to the indicated wells, and the plate was incubated at 37° C., 5% CO2, for 72 h.
(§14) LPS (0.1 μg/mL, 100 μL) was added into each well. Dex (1 μg/mL) was included as a positive control. Plate was incubated at 37° C., 5% CO2 for 72 h. Supernatant was collected to measure TNF-α by ELISA. Cell proliferation was detected by CTG.

[8] = tested on: human peripheral blood mononuclear cells (PBMCs); assay: Cell proliferation of LPS-challenged PBMCs by CellTiter-Glo (CTG); conditions: human PBMCs, 72 h (LPS control 84.50)
Source text: as §9, §10, §11, §12, §13, §14

[9] = tested on: SK-HEP-1, liver adenocarcinoma; assay: CellTiter-Glo cell viability assay, cancer cell cytotoxicity/anti-proliferation panel (Chempartner); conditions: Homo sapiens, SK-HEP1, 72 h; read-out: IC50 (absolute IC50)
Description: as §1, §2, §3, §4, §5, §6, §7, §8

[10] = 72 hours, compounds 10 μM starting, STS 2 μM starting, 10-pt, 3-fold dilution

Compound: CCCCCc1cc2c(c(O)c1C(=O)N/N=C/c1ncccn1)[C@@H]1C=C(C)CC[C@H]1C(C)(C)O2 [Ia16, (6aR,10aR)-1-hydroxy-6,6,9-trimethyl-3-pentyl-N′-((E)-pyrimidin-2-ylmethylene)-6a,7,8,10a-tetrahydro-6H-benzo[c]chromene-2-carbohydrazide]
- IC50 ([1]; Homo sapiens, 72 h, read-out: IC50 (absolute IC50)): > 10 µM
- Inhibition [1, 10]: 47.20%
- IC50 [2]: 1.88 µM
- Inhibition ([2]; PANC-1, 72 hours, compounds 10 μM starting, STS 2 μM starting, 10-pt, 3-fold dilution): 85.71%
- Inhibition ([3]; A549, 72 hours, compounds 10 μM starting, STS 2 μM starting, 10-pt, 3-fold dilution): 70.01%
- IC50 ([3]; Homo sapiens, A549, 72 h, read-out: IC50 (absolute IC50)): 5.53 µM
- Inhibition ([4]; AsPC-1, 72 hours, compounds 10 μM starting, STS 2 μM starting, 10-pt, 3-fold dilution): 67.70%
- IC50 ([4]; Homo sapiens, ASPC1, 72 h, read-out: IC50 (absolute IC50)): 4.34 µM
- Inhibition [5, 10]: 73.80%
- IC50 [5]: 3.37 µM
- IC50 [6]: 7 µM

Compound: C=C(C)[C@@H]1CCC(C)=C[C@H]1c1c(O)cc(CCCCC)c(C(=O)NCCN2CCCC2)c1O [Ia27, (1′R,2′R)-2,6-dihydroxy-5′-methyl-4-pentyl-2′-(prop-1-en-2-yl)-N-(2-(pyrrolidin-1-yl)ethyl)-1′,2′,3′,4′-tetrahydro-[1,1′-biphenyl]-3-carboxamide]
- TNF-α ([7]; compound 1 μM + 0.1 μg/mL LPS): 36.23 pg/mL
- TNF-α ([7]; compound 10 μM + 0.1 μg/mL LPS): 22.09 pg/mL
- change of TNF-α expression in LPS-treated cells ([7]; tested concentrations of 1 M and 10 M (so in the source)): decreased TNF-α expression
- CTG signal ([8]; compound 1 μM + 0.1 μg/mL LPS): 81.90 10^4
- CTG signal ([8]; compound 10 μM + 0.1 μg/mL LPS): 78.67 10^4
- IC50 [6]: 7.5 µM

Compound: CCCCCc1cc2c(c(O)c1C(=O)NCCNc1ncccn1)[C@@H]1C=C(C)CC[C@H]1C(C)(C)O2 [Ia31, (6aR,0aR)-1-hydroxy-6,6,9-trimethyl-3-pentyl-N-(2-(pyrimidin-2-ylamino)ethyl)-6a,7,8,10a-tetrahydro-6H-benzo[c]chromene-2-carboxamide]
- IC50 [6]: 8.5 µM

Compound: CN[C@@H]1C[C@H]2O[C@@](C)([C@@H]1OC)n1c3ccccc3c3c4c(c5c6ccccc6n2c5c31)C(=O)NC4 [STS, Staurosporine, reference compound]
- IC50 [9]: 0.07 µM
- IC50 [2]: 0.04 µM
- IC50 [5]: 0.082 µM

Compound: CCCCCc1cc2c(c(O)c1C(=O)NCCn1ccnc1)[C@@H]1C=C(C)CC[C@H]1C(C)(C)O2 [Ia33, (6aR,0aR)—N-(2-(1H-imidazol-1-yl)ethyl)-1-hydroxy-6,6,9-trimethyl-3-pentyl-6a,7,8,10a-tetrahydro-6H-benzo[c]chromene-2-carboxamide]
- IC50 [6]: 6.7 µM

Compound: CCCCCc1cc2c(c(O)c1C(=O)NCCN1CCCC1)[C@@H]1C=C(C)CC[C@H]1C(C)(C)O2 [Ia32, (6aR,0aR)-1-hydroxy-6,6,9-trimethyl-3-pentyl-N-(2-(pyrrolidin-1-yl)ethyl)-6a,7,8,10a-tetrahydro-6H-benzo[c]chromene-2-carboxamide]
- IC50 [6]: 3.9 µM
